The values below come from patent publication US6730792B2, “β3 adrenergic agonists” (Eli Lilly and Company, priority 2000, dated 2004).

For one assay, the target named is T1, human β3 adrenergic receptor (Homo sapiens, UniProt P13945).
T1 construct: expressed in transfected cells; host or cells: DXB-11 Chinese hamster ovary (CHO) cell line, stably transfected (phd expression vector)
T1 sequence (P13945 whole entry): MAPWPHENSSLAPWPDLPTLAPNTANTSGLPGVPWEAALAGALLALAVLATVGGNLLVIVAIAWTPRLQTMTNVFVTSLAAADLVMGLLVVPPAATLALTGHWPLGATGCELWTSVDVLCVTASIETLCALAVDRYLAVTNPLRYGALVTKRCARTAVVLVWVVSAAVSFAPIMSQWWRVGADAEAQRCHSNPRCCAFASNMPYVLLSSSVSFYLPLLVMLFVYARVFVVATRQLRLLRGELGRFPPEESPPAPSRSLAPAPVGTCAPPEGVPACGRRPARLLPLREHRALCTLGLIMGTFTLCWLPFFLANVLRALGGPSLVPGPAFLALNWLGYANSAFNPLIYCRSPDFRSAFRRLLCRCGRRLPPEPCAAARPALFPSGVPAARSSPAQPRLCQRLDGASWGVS
In words: whole cell receptor coupled c-AMP assay, human β3 receptor in CHO cells (EC50, Emax relative to isoproterenol). Format: cell-based. As to conditions: % intrinsic activity relative to isoproterenol maximal response; SEM in brackets; c-AMP in transfected CHO cells. From the text: The genes encoding the human β1-adrenergic receptor (Frielle et al., Proc. Natl. Acad. Sci., 84:7920-7924, 1987), the human β2-adrenergic receptor (Kobika et al., Proc. Natl. Acad. Sci., 84:46-50, 1987, Emorine et al., Proc. Natl. Acad. Sci., 84:6995-6999, 1987) and the human β3 adrenergic receptor (Granneman et al., Molecular Pharmacology, 44(2):264-70, 1993) are individually subcloned into a phd expression vector (Grinnell et al., Bio/Technology, 5:1189-1192, 1987) and transfected into the DXB-11 Chinese hamster ovary (CHO) cell line by calcium phosphate precipitation methodology. The stably transfected cells are grown to 95% confluency in 95% Dulbecco's modified Eagles Medium (DMEM), 5% fetal bovine serum and 0.01% proline. Media is removed and the cells are washed with phosphate buffered (pH 7.4) saline (without magnesium and calcium). Cells are then lifted using an enzyme free cell dissociation solution (Specialty Media, Lavallette, N.J.) and pelleted by centrifugation.
Cells from each of the above cell lines are resuspended and added (20,000/well) to a 96-well plate. Cells are incubated at 37° C. with representative compounds of the invention for 20 minutes in buffer (Hank's balanced salt solution, 10 mM HEPES, 0.1% BSA, 1 mM L-ascorbic acid, 0.2% dimethyl sulfoxide, 1 mm 3-isobutyl-1-methylxanthine, pH 7.4). After halting the incubation with quench buffer (50 mM Na Acetate, 0.25% Triton X-100, pH 5.8), the c-AMP level is quantified by scintillation proximity assay (SPA) using a modification of the commercially available c-AMP kit (Amersham, Arlington Heights, Ill.) with rabbit anti-cAMP antibody (ICN Biomedicals, Aurora, Ohio) for the kit.
Sigmoidal dose response curves, from the whole cell receptor coupled c-AMP assay are fit to a four parameter logistic equation using non linear regression: y=(a−d)/(1+(Dose/c)^b)+d where a and d are responses at zero and maximal dose, b is the slope factor and c is the EC50 as previously described (DeLean et al., Am. J. Physiol., 235, E97-E102, 1978). EC50 is assessed as the concentration producing 50% of the maximum response to each agonist.
Isoproterenol is accepted in the art as a non-selective β3 agonist and is widely used as a comparator in evaluating the activity of compounds. See Trends in Pharm. Sci., 15:3, 1994. The % intrinsic activity (Emax) of representative compounds of the invention is assessed relative to isoproterenol by the compound's maximal response divided by the isoproterenol maximal response times 100.
In turn, `CC(C)(Cc1ccc(Oc2ncccc2C(N)=O)cc1)NC[C@H](O)COc1ccccc1-c1ccc(C(=O)O)s1` [Example 449] returned an Emax of 74.2%.

Still in this assay, the particulars now being: % intrinsic activity relative to isoproterenol maximal response; average of at least 3 runs; c-AMP in transfected CHO cells.
In the case of `Cc1ccc(-c2ccccc2OC[C@@H](O)CNC(C)(C)Cc2ccc(Oc3cccnc3C#N)cc2)s1.Cl` [Example 422], the “Emax (%) ± SEM” value worked out at 60.1 ± 8.2%.

Take `CC(C)(Cc1ccc(Oc2ccc(C#N)cn2)cc1)NC[C@H](O)COc1ccccc1-c1cc2ccccc2s1` [Example 384]: the “Emax (%) ± SEM” value stood at 45.4 ± 5.6%.

For the compound `Cc1ccc(-c2ccccc2OC[C@@H](O)CNC(C)(C)Cc2ccc(Oc3ccc(C#N)cn3)cc2)s1.Cl` [Example 405], the “Emax (%) ± SEM” value was 64.4 ± 7.1%.

Regarding `CC(C)(Cc1ccc(Oc2ccc(C#N)cn2)cc1)NC[C@H](O)COc1c(F)cccc1-c1ccsc1.Cl` [Example 426], the “Emax (%) ± SEM” value is recorded as 61.0 ± 7.1%.

For the compound `CC(C)(Cc1ccc(Oc2ncccc2C#N)cc1)NC[C@H](O)COc1ccccc1-c1cccnc1` [Example 390], the “Emax (%) ± SEM” value is given as 14.4 ± 1.7%.

Turning to `CC(=O)c1ccc(-c2ccccc2OC[C@@H](O)CNC(C)(C)Cc2ccc(Oc3cccnc3C#N)cc2)s1.Cl` [Example 424], the “Emax (%) ± SEM” value is given as 71.2 ± 7.9%.

`CC(C)(Cc1ccc(Oc2ccc(C#N)cn2)cc1)NC[C@H](O)COc1c(F)cccc1-c1ccc(Cl)s1.Cl` [Example 428]: the “Emax (%) ± SEM” value turned out to be 75.5 ± 6.9%.

As for `CC(C)(Cc1ccc(Oc2ncccc2C#N)cc1)NC[C@H](O)COc1ccccc1-c1cc2ccccc2o1` [Example 371], the “Emax (%) ± SEM” value stood at 38.9 ± 3.9%.

As for `CC(C)(Cc1ccc(Oc2ncccc2C(N)=O)cc1)NC[C@H](O)COc1ccccc1-c1ccncc1` [Example 376], the “Emax (%) ± SEM” value came out at 48.2 ± 6.7%.

For `CC(C)(Cc1ccc(Oc2cccnc2C#N)cc1)NC[C@H](O)COc1ccccc1-c1ccco1.Cl` [Example 425], the “Emax (%) ± SEM” value was determined as 67.1 ± 3.0%.

The same assay, now with this note: Emax ± SEM; average of at least 3 runs except as otherwise indicated; tested as the isolated form listed.
Regarding `CC(C)(Cc1ccc(Oc2ccc(C#N)nc2)cc1)NC[C@H](O)COc1ccccc1-c1ccon1.Cl` [Example 300], the “Emax (%) ± SEM” value is given as 52.2 ± 5.9%.

Staying with this assay, now noted: Emax ± standard error of the mean; average of at least 3 runs except where n = 1; compound tested in the isolated form listed.
With `Cn1nccc1-c1ccccc1OC[C@@H](O)CNC(C)(C)Cc1ccc(Oc2ncccc2C#N)cc1` [Example 48], the “Emax (%) ± SEM” value is recorded as 14.4 n = 1%.

Turning to `CC(C)(Cc1ccc(Oc2ccccc2C(N)=O)cc1)NC[C@H](O)COc1ccccc1-c1cscn1.Cl` [Example 244], the “Emax (%) ± SEM” value came out at 66.6 ± 5.7%.

On to `CC(C)(Cc1ccc(Oc2ncccn2)cc1)NC[C@H](O)COc1ccccc1-c1ccno1.O=C(O)C(F)(F)F` [Example 152], for which the “Emax (%) ± SEM” value was found to be 45.3 ± 4.2%.

With `CCOC(=O)c1ccc(Oc2ccc(CC(C)(C)NC[C@H](O)COc3ccccc3-c3nccs3)cc2)c(Cl)c1.O=C(O)C(F)(F)F` [Example 222], the “Emax (%) ± SEM” value was 59.0 ± 10.0%.

As for `Cn1nccc1-c1ccccc1OC[C@@H](O)CNC(C)(C)Cc1ccc(Oc2ncccc2C(N)=O)cc1` [Example 66], the “Emax (%) ± SEM” value was determined as 26.6 n = 1%.

Turning to `COC(=O)c1ccc(Oc2ccc(CC(C)(C)NC[C@H](O)COc3ccccc3-c3cccs3)cc2)nc1` [Example 115], the “Emax (%) ± SEM” value came to 61.9 ± 7.0%.

As to `CC(C)(Cc1ccc(Oc2ccc(C(N)=O)cn2)cc1)NC[C@H](O)COc1ccccc1-c1cnco1.Cl` [Example 46], the “Emax (%) ± SEM” value came out at 64.7 ± 1.3%.

For the compound `CCOC(=O)c1cccnc1Oc1ccc(CC(C)(C)NC[C@H](O)COc2ccccc2-c2ccnn2C)cc1` [Example 105], the “Emax (%) ± SEM” value is reported as <10%.

In the case of `CC(C)(Cc1ccc(Oc2ccc(Cl)nn2)cc1)NC[C@H](O)COc1ccccc1-c1ccno1.O=C(O)C(F)(F)F` [Example 210], the “Emax (%) ± SEM” value was found to be 89.1 ± 2.7%.

Consider `COC(=O)c1ccc(Oc2ccc(CC(C)(C)NC[C@H](O)COc3ccccc3-c3nccs3)cc2)c(Cl)c1` [Example 140], for which the “Emax (%) ± SEM” value stood at 48.9 ± 2.5%.

Turning to `CC(C)(Cc1ccc(Oc2ccc(C(N)=O)cn2)cc1)NC[C@H](O)COc1ccccc1N1CCOCC1.Cl.Cl` [Example 23], the “Emax (%) ± SEM” value turned out to be 29.9 ± 3.2%.

Consider `CC1(C)COC(c2ccccc2OC[C@@H](O)CNC(C)(C)Cc2ccc(Oc3ncccc3C(N)=O)cc2)=N1.Cl` [Example 83], for which the “Emax (%) ± SEM” value worked out at 83.5 ± 4.4%.

For the compound `CC(C)(Cc1ccc(Oc2ccc(C#N)cc2)cc1)NC[C@H](O)COc1ccccc1-c1nccs1.O=C(O)C(F)(F)F` [Example 120], the “Emax (%) ± SEM” value was found to be 35.8 ± 4.6%.

As to `CC(C)(Cc1ccc(Oc2ccc(S(N)(=O)=O)cc2F)cc1)NC[C@H](O)COc1ccccc1-c1nccs1.O=C(O)C(F)(F)F` [Example 226], the “Emax (%) ± SEM” value was determined as 37.8 ± 9.2%.

For `CC(C)(Cc1ccc(Oc2ncccc2C(N)=O)cc1)NC[C@H](O)COc1ccccc1N1CCNC1=O` [Example 103], the “Emax (%) ± SEM” value turned out to be 21.1 ± 0.1%.

Regarding `CC(C)(Cc1ccc(Oc2cccc(Cl)c2C#N)cc1)NC[C@H](O)COc1ccccc1-c1cscn1.Cl` [Example 245], the “Emax (%) ± SEM” value worked out at 56.1 ± 2.9%.

For `CC(C)(Cc1ccc(Oc2ccc(C(N)=O)cc2)cc1)NC[C@H](O)COc1ccccc1-c1ccon1.Cl` [Example 299], the “Emax (%) ± SEM” value turned out to be 45.9 ± 3.9%.

`CC(C)(Cc1ccc(Oc2ncccc2C(N)=O)cc1)NC[C@H](O)COc1ccccc1-c1ccnc(N)n1` [Example 90]: the “Emax (%) ± SEM” value was 31.5 ± 2.8%.

Consider `CC(C)(Cc1ccc(Oc2cccnc2C(N)=O)cc1)NC[C@H](O)COc1ccccc1-c1cscn1.Cl` [Example 242], for which the “Emax (%) ± SEM” value was determined as 55.9 ± 4.0%.

With `CC(C)(Cc1ccc(Oc2nc(Cl)c(Cl)cc2Cl)cc1)NC[C@H](O)COc1ccccc1-c1cccs1.O=C(O)C(F)(F)F` [Example 156], the “Emax (%) ± SEM” value was found to be 84.9 ± 0.2%.

Take `CC(C)(Cc1ccc(Oc2ccc(C(N)=O)cn2)cc1)NC[C@H](O)COc1cccc(-c2cc[nH]n2)c1` [Example 34]: the “Emax (%) ± SEM” value is reported as <10%.

Consider `CC(C)(Cc1ccc(Oc2ccc(C(N)=O)cn2)cc1)NC[C@H](O)COc1ccccc1-n1cccc1.Cl` [Example 29], for which the “Emax (%) ± SEM” value amounted to 48.4 ± 5.9%.

On to `CC(C)(Cc1ccc(Oc2ccc(C(N)=O)cn2)cc1)NC[C@H](O)COc1ccccc1-n1cccn1.Cl` [Example 47], for which the “Emax (%) ± SEM” value is on record as 35.5 ± 5.5%.

For the compound `CC(C)(Cc1ccc(Oc2ccc(C(N)=O)cn2)cc1)NC[C@H](O)COc1ccccc1-c1ccno1` [Example 18], the “Emax (%) ± SEM” value was found to be 49.1 ± 2.9%.

`CC(C)(Cc1ccc(Oc2ccc(C(N)=O)cn2)cc1)NC[C@H](O)COc1ccccc1-c1nnco1` [Example 30]: the “Emax (%) ± SEM” value is recorded as 51.7 ± 2.7%.

With `CC(C)(Cc1ccc(Oc2ccc(C(N)=O)nc2)cc1)NC[C@H](O)COc1ccccc1-c1cccs1.O=C(O)C(F)(F)F` [Example 205], the “Emax (%) ± SEM” value turned out to be 70.3 ± 0.3%.

For `CCOC(=O)c1cccnc1Oc1ccc(CC(C)(C)NC[C@H](O)COc2ccccc2-c2nccs2)cc1` [Example 109], the “Emax (%) ± SEM” value was 61.4 ± 4.4%.

Take `CC(C)(Cc1ccc(Oc2ccc(C(N)=O)s2)cc1)NC[C@H](O)COc1ccccc1-c1cscn1.Cl` [Example 259]: the “Emax (%) ± SEM” value is listed as 54.1 ± 3.9%.

Turning to `CC(C)(Cc1ccc(Oc2ccccc2C(N)=O)cc1)NC[C@H](O)COc1cccc(F)c1-c1cccs1.O=C(O)C(F)(F)F` [Example 228], the “Emax (%) ± SEM” value is 28.9 ± 3.4%.

Regarding `CC(C)(Cc1ccc(-c2ccccc2C#N)cc1)NC[C@H](O)COc1ccccc1-c1ccno1.O=C(O)C(=O)O` [Example 289], the “Emax (%) ± SEM” value is recorded as 37.4 ± 7.2%.
